We go through eight molecules from patent US11708562B2, “Differentiation of human embryonic stem cells” (Janssen Biotech, Inc., priority 2006, dated 2023).

Assay [1] deals with human embryonic stem cell line H9. Put plainly: Formation of pancreatic endoderm: retinoic acid and bFGF after activin A (PCR, immunocytochemistry). It is filed as cell-based. The text has this:
Final data were expressed relative to a calibrator sample.

For assay [2], the system named is human embryonic stem cell line H1 at passage 55. Put plainly: Definitive endoderm on human serum coated plates (real-time PCR). The assay is classed as cell-based. The protocol: Cultures of the human embryonic stem cell line H1 at passage 55 were grown and differentiated on human serum (Sigma, # H1388, MO) coated plates. 0.5 ml of human serum was added to each well of 6 well tissue culture treated dish, incubated for 1 hr at room temperature, and aspirated before adding human embryonic stem cells. […] These findings parallel our findings for human embryonic stem cells cultured on […]™ or human fibronectin coated plates.
For orientation: Quantitative PCR measures a nucleic acid by following its amplification.

Assay [3] deals with H9P46-P48 embryonic stem cells. Put plainly: Definitive endoderm on […]: effect of GSK-3B inhibitor (FACS CXCR4, PCR). It is filed as cell-based, human. Conditions: 20 ng/ml of Wnt-3a or 100-1000 nM GSK-3B inhibitor. The protocol:
In order to confirm that the effect of Wnt-3a was through the Wnt pathway, a GSK-3 inhibitor was used to activate the downstream targets of Wnt, such as beta catenin. […] FIG. 29A depicts the expression of CXCR4 by FACS at day 5 in the absence of Wnt-3a or GSK-3B inhibitor, b)+20 ng/ml Wnt-3a, c)+1000 nM GSK-3B inhibitor IX, d)+500 nM GSK-3B inhibitor IX, e)+100 nM GSK-3B inhibitor IX, f)+10 nM GSK-3B inhibitor IX, g)+100 nM GSK-3B inhibitor IX for days 1-2, and h)+10 nM GSK-3B inhibitor IX for days 1-2.

The test system of assay [4] is H9P53 embryonic stem cells. Put plainly: Definitive endoderm on […]: combination of Wnt-3a, GSK-3B inhibitor, BMP-4. It is filed as cell-based, human. The text has this:
Results are expressed as fold increase over untreated cells. […] Results are expressed as fold increase over untreated cells.

Assay [5] has as its system human embryonic stem cell line H9. Put plainly: Formation of pancreatic endocrine cells: γ-secretase inhibitor L-685,458 (PCR). The assay is classed as cell-based. Conditions: L-685,458 at 10 μM for three days. The method, then: After this time interval, the cells were then treated for six days with combinations of retinoic acid and FGF as outlined in Example 2, then the culture medium was removed and replaced with medium comprising DMEM/F12 with 2% FBS, containing the γ-secretase inhibitors L-685,458 at 10 μM for three days.

The test system is the same in assay [6]. Put plainly: Derivation of hepatocytes from human embryonic stem cells (PCR of AFP, albumin). The assay is classed as cell-based. The note with it: five days after 7 days activin A.
Description: After this time, the cells were harvested, and samples of mRNA were collected for analysis.
In assay [7] the test system is H7P44 and H9P46 embryonic stem cells. Put plainly: Definitive endoderm on […]: role of Wnt ligands (FACS CXCR4, real-time PCR). The assay is classed as cell-based, human. Conditions: H7 and H9; low serum+AA+/-Wnt ligands. The protocol: In some of the cultures 20 ng/ml Wnt-3a (Catalog #1324-WN-002, R&D Systems, MN), 20 ng/ml Wnt-5a (Catalog #654-WN-010, R&D Systems, MN), 25 ng/ml Wnt-7a (Catalog #3008-WN-025, R&D Systems, MN), or 25 ng/ml Wnt-5b (Catalog #3006-WN-025, R&D Systems, MN) was added throughout the five day treatment. FIGS. 24A and 24B depicts phase contrast images of H9P46 definitive endoderm culture in the presence of high concentration of (a) AA or (b) AA+20 ng/ml Wnt-3a. FIGS. 25A, 25B, 25C and 25D depicts the expression of CXCR4 by FACS at day 5 for H7P44, and H9P46 lines cultured on […]™ (1:30 dilution) and exposed to the DE protocol+Wnt-3a (FIGS. 25B and 25D) and -Wnt-3a (FIGS. 25A and C).

Turning to `CC1=C(/C=C/C(C)=C/C=C/C(C)=C/C(=O)O)C(C)(C)CCC1` [retinoic acid, all-trans retinoic acid], the “expression of GLUT-2 and PTF1a” value in assay [1] (1 μM retinoic acid and 50 ng/ml bFGF, absence of activin A) is “largest increase”. For the same molecule, the “Pdx1 expression relative to activin A treatment alone for 5 days” value in assay [1] (three days activin A, then 5 days retinoic acid and 50 ng/ml bFGF in the absence of activin A) is listed as “approximately 3500 fold”. With `O=C1Nc2cc(Br)ccc2/C1=C1/Nc2ccccc2/C1=N\O` [GSK-3B inhibitor IX, reference compound], the “expression of definitive endoderm markers compared to activin A only” value in assay [2] is “Robust expression”. In addition, the “number of CXCR4 positive cells (FACS)” value in assay [3] was “significantly increased”. The “definitive endoderm markers, combination versus each agent by itself” value in assay [4] (Wnt-3A plus GSK inhibitor in the presence of activin A) is recorded as “do not lead to significant upregulation”.

Take `CC(C)C[C@H](NC(=O)[C@H](Cc1ccccc1)C[C@@H](O)[C@H](Cc1ccccc1)NC(=O)OC(C)(C)C)C(=O)N[C@@H](Cc1ccccc1)C(N)=O` [L-685,458]: the “expression of Ngn3 relative to activin A alone or retinoic acid with FGFs” value in assay [5] is reported as “approximately 50 fold”.

B1: BMP-4: Catalog #314-BP-010, R&D Systems (protein, UniProt P12644 293-408, looked up)
Bone morphogenetic protein 4: SPKHHSQRARKKNKNCRRHSLYVDFSDVGWNDWIVAPPGYQAFYCHGDCPFPLADHLNSTNHAIVQTLVNSVNSSIPKACCVPTELSAISMLYLDEYDKVVLKNYQEMVVEGCGCR
Consider B1, for which the “effect of addition of BMP-4 to the DE protocol” value in assay [4] (25 ng/ml BMP-4) is “induce formation of mesoderm marker BRY”.

B2: FGF-4: member of the fibroblast growth factor family (protein, UniProt P08620 31-206, looked up)
Fibroblast growth factor 4: APTAPNGTLEAELERRWESLVALSLARLPVAAQPKEAAVQSGAGDYLLGIKRLRRLYCNVGIGFHLQALPDGRIGGAHADTRDSLLELSPVERGVVSIFGVASRFFVAMSSKGKLYGSPFFTDECTFKEILLPNNYNAYESYKYPGMFIALSKNGKTKKGNRVSPTMKVTHFLPRL
Take B2: the “expression of α-fetoprotein (AFP) and albumin” value in assay [6] is “further increased”.

B3: Wnt-5b: Wnt ligand, Catalog #3006-WN-025, R&D Systems (protein, UniProt P22726 18-359, looked up)
Protein Wnt-5b: QLLTDANSWWSLALNPVQRPEMFIIGAQPVCSQLPGLSPGQRKLCQLYQEHMSYIGEGAKTGIRECQHQFRQRRWNCSTVDNTSVFGRVMQIGSRETAFTYAVSAAGVVNAISRACREGELSTCGCSRAARPKDLPRDWLWGGCGDNVEYGYRFAKEFVDAREREKNFAKGSEEQGRALMNLQNNEAGRRAVYKMADVACKCHGVSGSCSLKTCWLQLAEFRKVGDRLKEKYDSAAAMRITRQGKLELANSRFNQPTPEDLVYVDPSPDYCLRNETTGSLGTQGRLCNKTSEGMDGCELMCCGRGYDRFKSVQVERCHCRFHWCCFVRCKKCTEVVDQYVCK
Regarding B3, the “expression of definitive endoderm markers (real-time PCR)” value (from here on “expression … (real-time PCR)”) in assay [7] was “minimal impact”.

B4: Wnt-5a: Wnt ligand, Catalog #654-WN-010, R&D Systems (protein, UniProt P22725 62-380, looked up)
Protein Wnt-5a: IIGAQPLCSQLAGLSQGQKKLCHLYQDHMQYIGEGAKTGIKECQYQFRHRRWNCSTVDNTSVFGRVMQIGSRETAFTYAVSAAGVVNAMSRACREGELSTCGCSRAARPKDLPRDWLWGGCGDNIDYGYRFAKEFVDARERERIHAKGSYESARILMNLHNNEAGRRTVYNLADVACKCHGVSGSCSLKTCWLQLADFRKVGDALKEKYDSAAAMRLNSRGKLVQVNSRFNSPTTQDLVYIDPSPDYCVRNESTGSLGTQGRLCNKTSEGMDGCELMCCGRGYDQFKTVQTERCHCKFHWCCYVKCKKCTEIVDQFVCK
As to B4, the “expression … (real-time PCR)” value in assay [7] was “minimal impact”.

B5: Wnt-7a: Wnt ligand, Catalog #3008-WN-025, R&D Systems (protein, UniProt O00755 32-349, looked up)
Protein Wnt-7a: LGASIICNKIPGLAPRQRAICQSRPDAIIVIGEGSQMGLDECQFQFRNGRWNCSALGERTVFGKELKVGSREAAFTYAIIAAGVAHAITAACTQGNLSDCGCDKEKQGQYHRDEGWKWGGCSADIRYGIGFAKVFVDAREIKQNARTLMNLHNNEAGRKILEENMKLECKCHGVSGSCTTKTCWTTLPQFRELGYVLKDKYNEAVHVEPVRASRNKRPTFLKIKKPLSYRKPMDTDLVYIEKSPNYCEEDPVTGSVGTQGRACNKTAPQASGCDLMCCGRGYNTHQYARVWQCNCKFHWCCYVKCNTCSERTEMYTCK
With B5, in assay [7], the “expression … (real-time PCR)” value was “minimal impact”.
